In patent publication US20230414771A1, “PREPARATION AND USE OF IMMUNOSTIMULATORY CONJUGATED COMPLEXES FOR TARGETED DELIVERY AND ACTIVATION” (YAFEI SHANGHAI BIOLOGY MEDICINE SCIENCE & TECHNOLOGY CO., …, priority 2020, published 2023):
Like-named read-outs stand apart in the source and are kept apart here. Where a SMILES comes first, the peptide text is derived from it. The star is where a group is joined. Doxorubicin(3'-N) = COc1cccc2c1C(=O)c1c(O)c3c(c(O)c1C2=O)C[C@@](O)(C(=O)CO)C[C@@H]3O[C@H]1C[C@H](N*)[C@H](O)[C@H](C)O1; Hexanoyl(6-maleimido) = O=C1C=CC(=O)N1CCCCCC(=O)*

Assays:
[1] = system: Human renal carcinoma OS-RC-2 tumor tissue homogenate; assay: Activation in OS-RC-2 tumor tissue homogenate; assay type: biochemical; details: OS-RC-2 homogenate pH 6.0, 37° C., 1 mg/ml
Procedure: (§1) In the experiments of the present disclosure, 1 mg/ml of the sample compound was added to 100 μg of acidified tumor tissue homogenate (pH 6.0) at 37° C. The enzyme in the tumor tissue homogenate can cause the release of doxorubicin, and the reduction of compound and the increase of doxorubicin could be detected by HPLC to compare the activation efficiency of the drug in the tumor tissue.

[2] = system: Human hepatoma HepG2 cells; assay: Human liver cancer HepG2 tumors in nude mice; assay type: in vivo; details: for inhibition in vivo at 54 µmol/kg: Mus musculus, read-out: Tumor inhibition rate (%) Day 28
Summary of the method: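 Female nude mice aged 6-8 weeks bearing HepG2 xenografts, randomized at 100 mm^3 tumor size. Dosing IV from Day 1 at 54 umol/kg; DOX at 18 umol/kg.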

HT1080 tumors = assay: HT1080 tumor model in nude mice, 36 umol/kg; assay type: in vivo; details: for inhibition in vivo at 36 µmol/kg: Mus musculus, read-out: Tumor inhibition rate Day 28
Procedure: • 1. Animals: nude mice aged 6-8 weeks, all female. • 2. Preparation of tumor models • 1) HT1080 cells were purchased from ATCC and characterized according to the instructions provided. […] Randomization was performed when the tumor size reached 100 mm^3. Treatment was then initiated, and the day of initiation of treatment was counted as Day 1. • 3) Treatment process
According to the clinical application of the corresponding compound, the drug was administered intravenously (IV). The compounds indicated in the table were administered at a low dose and at the same dose of 36 umol/kg.

BALB/C mice = assay: Acute toxicity (MTD) of intravenous administration in mice; assay type: in vivo; details: 38.4 μmol/kg intravenous, 10 mice, observed 17 days
Procedure: They were randomly divided into 7 groups according to body weight, 10 mice in each group. […] The control test of saline group and paclitaxel group injection (commercially available, Beijing Youcare pharmaceutical) was carried out, the volume of administration was 0.2 ml for each mouse.

[3] = system: Human non-small cell lung cancer A549 tumor tissue homogenate; assay: Activation in A549 tumor tissue homogenate; assay type: biochemical; details: A549 homogenate pH 6.0, 37° C., 1 mg/ml
Procedure: as §1

HSA = HSA (Homo sapiens, UniProt P02768); assay: Binding of compounds with HSA (albumin coupling); details: compound with HSA 3:1, 37° C. for 3 h
Procedure: HSA was dissolved in sterile water. The compound was combined with HSA at a ratio of 3:1 (4.8 umol/mL, 1.6 umol/mL), and reacted in a water bath at 37° C. for 3 h. The reaction solution was taken out, and the unbound compound was filtered by pressurized ultrafiltration membrane, diluted with normal saline and filtered for 3 times to obtain the semi-finished product.

[4] = assay type: physicochemical
Description: The freeze-dried products EMC-AANL-DOX, HSA-EMC-AANL-DOX, HSA-QHL-087-DOX and HSA-QHL-087-N-CBP prepared by the embodiment of the disclosure are subpackaged in a sterile room and redissolved by water for injection.

M2 macrophages = assay: Cytotoxicity screening, inhibition rate of M2 macrophages at 10 uM; assay type: cell-based, C57BL/6 mice; details: 10 uM drug per well, 3 wells, relative to the drug-free group
Procedure: After the cell count in Example 13, the cell concentration was adjusted with the culture medium, and the cells were seeded in a 96-well culture plate at […] of cell suspension per well, wherein the seeding concentration of CD8+ T cells was 100000 cells/well, and the seeding concentration of M2 macrophages was 20000 cells/well. The 96-well plate was incubated overnight for 24 hour at 37° C. in a carbon dioxide (5%) incubator. After 24 hours, 100 ul of cell culture solutions containing different concentrations of drugs were added to the 96-well culture plate. At the same time, a control well (0.1% DMSO) with no drug added and only the corresponding drug solvent and a zero-adjusted well (Blank) with only medium and no cells added was set. Each set was prepared in triplicate and the plates were incubated for 48 hours at 37° C. in a 5% CO2 incubator. After 48 hours, 20 μl MTT (5 mg/ml) was added to each well and the incubation was continued for 4 hours. The culture medium was then gently aspirated, and 150 μl DMSO was added to each well as solvent for dissolution. After dissolution, the absorbance at 490 nm was measured with a microplate reader.
Cytotoxicity screening experiments for some compounds were performed for M2 macrophage inhibition as in embodiment 14.

[5] = Water solubility test (observation and HPLC); assay type: physicochemical; details: thermodynamic from solid
Procedure: The compounds prepared in accordance with the examples of the disclosure and the reference compounds C1, C2, C3 and C4 were lyophilized (−70° C.).

[6] = system: Human prostate cancer PC-3 tumor tissue homogenate; assay: Activation in PC-3 tumor tissue homogenate; assay type: biochemical; details: PC-3 homogenate pH 6.0, 37° C., 1 mg/ml
Procedure: as §1

[7] = system: CT26 tumors orthotopically transplanted in liver; assay: Orthotopic liver CT26 tumors, EMC-AANL-DOX, lenvatinib and PD-1; assay type: in vivo, BALB/c mice; details: 18 μmol/kg IV once weekly for 3 weeks
Procedure: 5×10^5 CT26 cells were injected subcutaneously into the back of nude mice. Randomization was performed when the tumor size reached 800-1000 mm^3. Tumor tissue was then extracted and cut into 100 mm^3 tumor tissue pieces and transplanted orthotopically into BALB/c mouse livers. After one week, when the orthotopically transplanted tumors grew, the mice with orthotopically transplanted tumors were randomized. • 2) Treatment course: 6 mice in one group were treated with drugs. The day of treatment was Day 1. According to the clinical application of EMC-AANL-DOX, the drug was administered intravenously (IV) once weekly for 3 weeks.

Human heart = assay: Activation in human heart homogenate; assay type: biochemical; details: pH 6.0, 37° C., 1 mg/ml
[8] = system: Human breast cancer MDA-MB435 tumor tissue homogenate; assay: Activation in MDA-MB435 tumor tissue homogenate; assay type: biochemical; details: MDA-MB435 homogenate pH 6.0, 37° C., 1 mg/ml
Procedure: as §1

[9] = system: Human ovarian carcinoma SK-OV-3 tumor tissue homogenate; assay: Activation in SK-OV-3 tumor tissue homogenate; assay type: biochemical; details: SK-OV-3 homogenate pH 6.0, 37° C., 1 mg/ml
Procedure: as §1

[10] = system: Human live cancer Hep G2 tumor tissue homogenate; assay: Activation in Hep G2 tumor tissue homogenate; assay type: biochemical; details: Hep G2 homogenate pH 6.0, 37° C., 1 mg/ml
Procedure: as §1

[11] = system: Human pancreatic carcinoma Panc-1 tumor tissue homogenate; assay: Activation in Panc-1 tumor tissue homogenate; assay type: biochemical; details: Panc-1 homogenate pH 6.0, 37° C., 1 mg/ml
Procedure: as §1

[12] = system: Human fibrosarcoma HT-1080 tumor tissue homogenate; assay: Activation in HT-1080 tumor tissue homogenate; assay type: biochemical; details: HT-1080 homogenate pH 6.0, 37° C., 1 mg/ml
Procedure: as §1

HSA, sequence (P02768 25-609): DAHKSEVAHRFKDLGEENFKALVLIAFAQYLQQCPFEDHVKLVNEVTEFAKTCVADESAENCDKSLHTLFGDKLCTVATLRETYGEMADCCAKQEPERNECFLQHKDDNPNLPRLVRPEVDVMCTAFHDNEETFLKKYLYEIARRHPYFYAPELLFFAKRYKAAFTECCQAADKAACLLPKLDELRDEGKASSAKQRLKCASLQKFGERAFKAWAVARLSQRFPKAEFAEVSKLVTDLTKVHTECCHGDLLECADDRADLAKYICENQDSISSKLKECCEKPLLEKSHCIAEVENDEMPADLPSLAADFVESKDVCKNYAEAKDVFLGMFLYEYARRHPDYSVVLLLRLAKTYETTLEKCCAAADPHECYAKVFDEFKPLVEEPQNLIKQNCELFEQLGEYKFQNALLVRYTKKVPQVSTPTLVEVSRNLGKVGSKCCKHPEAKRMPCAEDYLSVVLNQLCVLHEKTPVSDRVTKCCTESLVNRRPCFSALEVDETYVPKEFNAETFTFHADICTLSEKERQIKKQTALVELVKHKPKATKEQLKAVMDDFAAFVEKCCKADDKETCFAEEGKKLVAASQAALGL

Structure (SMILES): COc1cccc2c1C(=O)c1c(O)c3c(c(O)c1C2=O)C[C@@](O)(C(=O)CO)C[C@@H]3O[C@H]1C[C@H](NC(=O)[C@H](CC(C)C)NC(=O)[C@H](CC(N)=O)NC(=O)[C@H](C)NC(=O)[C@H](C)NC(=O)CCCCCN2C(=O)C=CC2=O)[C@H](O)[C@H](C)O1 [EMC-AANL-DOX] ({Hexanoyl(6-maleimido)}-AANL-{Doxorubicin(3'-N)})
- Compound activation ratios (%) [1]: 46.4%
- Tumor volume (mm^3) Day 28 ([2]; 54 umol/kg IV once a week for 4 weeks): 218.3 ± 167.7 mm^3
- inhibition in vivo at 54 µmol/kg ([2]; HepG2, 672 h, 54 umol/kg IV once a week for 4 weeks): 92.5%
- therapeutic effect on liver cancer, in words ([2]; same molar dose): good effect on the treatment of liver cancer
- Tumor volume (mm^3) Day 28 (HT1080 tumors; 36 umol/kg IV once a week for 3 weeks): 138.3 ± 124.6 mm^3
- inhibition in vivo at 36 µmol/kg (HT1080 tumors; HT-1080, 672 h, 36 umol/kg IV once a week for 3 weeks): 92.1%
- Number of dead mice (BALB/C mice): 8
- Compound activation ratios (%) [3]: 46.4%
- binding rates of HSA (HSA): 62%
- Solubility in water for injection [4]: Insolubility
- Inhibition rate of M2 macrophages (M2 macrophages): 34.6%
- solubility [5]: < 5000 µg/mL
- Compound activation ratios (%) [6]: 37.3%
- efficacy combined with lenvatinib (FIG. 11) [7]: superior to that of each monotherapy
- efficacy combined with PD-1 (FIG. 11) ([7]; PD-1 5 mg/kg twice weekly): superior to that of lenvatinib combined with PD-1
- Compound activation ratios (%) (Human heart): 0.2%
- Compound activation ratios (%) [8]: 42.3%
- Compound activation ratios (%) [9]: 58.4%
- Compound activation ratios (%) [10]: 75.3%
- Compound activation ratios (%) [11]: 54.8%
- Compound activation ratios (%) [12]: 44.7%

Structure (SMILES): COc1cccc2c1C(=O)c1c(O)c3c(c(O)c1C2=O)C[C@@](O)(C(=O)CO)C[C@@H]3O[C@H]1C[C@H](NC(=O)[C@H](CC(C)C)NC(=O)[C@H](CC(N)=O)NC(=O)[C@H](C)NC(=O)[C@H](C)NC(=O)CCOCCOCCNC(=O)CCN2C(=O)C=CC2=O)[C@H](O)[C@H](C)O1 [QHL-087-DOX]
- inhibition in vivo at 54 µmol/kg ([2]; HepG2, iv, 672 h): 100%
- inhibition in vivo at 36 µmol/kg (HT1080 tumors; HT-1080, iv, 672 h): 100%
- Number of dead mice (BALB/C mice): 4
